Measurements from US11142527B2, “Dihydropyrimidine compounds and uses thereof in medicine” (SUNSHINE LAKE PHARMA CO., LTD., priority 2017, dated 2021).

Assays:
[1] = Cytotoxicity test with CellTiter Glo; assay type: cell-based; conditions: human, HepG2.2.15 cells, highest concentration 150 μM, read-out: CC50 values of the compounds of the invention
Outline: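 HepG2.2.15 cells (3000/well) exposed to serially diluted compound, highest final concentration 150 μM, for 4 days at 37 °C. Viability read by CellTiter Glo, cytotoxicity % taken relative to DMSO controls, and CC50 obtained by four-parameter nonlinear regression.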

HBV [2] = test: Test of anti HBV activity in vitro (viral DNA by qPCR); assay type: cell-based; conditions: Hepatitis B virus; HepG2.2.15 cells, viral DNA in cell culture supernatant by qPCR; read-out: EC50 values of the compound of the invention on viral replication
Outline: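 HepG2.2.15 cells (integrated HBV genome) were grown to confluence, then treated with compound in 4-fold dilutions from 4 μM final (0.5% DMSO). Secreted viral DNA in supernatant was quantified by SYBR qPCR against an HBV plasmid standard curve; EC50 from four-parameter nonlinear regression of concentration versus copy number.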

HBV [3] = conditions: Science, 2003, 299, 893-896; cited from earlier work

## COC(=O)C1=C(CN2CCN3C(=O)N(c4ccc(-c5ccc(CCC(=O)O)cc5)cc4)C[C@@H]3C2)NC(c2nccs2)=N[C@H]1c1ccc(F)cc1Cl [Example 126, 3-(4′-((S)-7-(((R)-6-(2-chloro-4-fluorophenyl)-5-(methoxycarbonyl)-2-(thiazol-2-yl)-3,6-dihydropyrimidin-4-yl)methyl)-3-oxohexahydroimidazo[1,5-a]pyrazin-2(3H)-yl)-[1,1′-biphenyl]-4-yl)propanoic acid]
[1]
  CC50 at 4 days: > 150000 nM
HBV [2]
  EC50: 6.7 nM

## COC(=O)C1=C(CN2CCN3C(=O)N(c4nc(-c5ccc(CCC(=O)O)cc5)cs4)C[C@@H]3C2)NC(c2nccs2)=N[C@H]1c1ccc(F)cc1Cl [Example 135, 3-(4-(2-((S)-7-(((R)-6-(2-chloro-4-fluorophenyl)-5-(methoxycarbonyl)-2-(thiazol-2-yl)-3,6-dihydropyrimidin-4-yl)methyl)-3-oxohexahydroimidazo[1,5-a]pyrazin-2(3H)-yl)thiazol-4-yl)phenyl)propanoic acid]
[1]
  CC50 at 4 days: > 150000 nM
HBV [2]
  EC50: 6.5 nM

## COC(=O)C1=C(CN2CCN3C(=O)N(c4nc(-c5ccc(C(=O)O)cc5F)cs4)C[C@@H]3C2)NC(c2nccs2)=N[C@H]1c1ccc(F)cc1Cl [Example 136, 4-(2-((S)-7-(((R)-6-(2-chloro-4-fluorophenyl)-5-(methoxycarbonyl)-2-(thiazol-2-yl)-3,6-dihydropyrimidin-4-yl)methyl)-3-oxohexahydroimidazo[1,5-a]pyrazin-2(3H)-yl)thiazol-4-yl)-3-fluorobenzoic acid]
[1]
  CC50 at 4 days: > 150000 nM
HBV [2]
  EC50: 20.1 nM

## COC(=O)C1=C(CN2CCN3C(=O)N(c4nc(-c5ccc(C(=O)O)c(F)c5)cs4)C[C@@H]3C2)NC(c2nccs2)=N[C@H]1c1ccc(F)cc1Cl [Example 137, 4-(2-((S)-7-(((R)-6-(2-chloro-4-fluorophenyl)-5-(methoxycarbonyl)-2-(thiazol-2-yl)-3,6-dihydropyrimidin-4-yl)methyl)-3-oxohexahydroimidazo[1,5-a]pyrazin-2(3H)-yl)thiazol-4-yl)-2-fluorobenzoic acid]
[1]
  CC50 at 4 days: > 150000 nM
HBV [2]
  EC50: 10 nM

## COC(=O)C1=C(CN2CCN3C(=O)N(c4nc(-c5cc(F)cc(C(=O)O)c5)cs4)C[C@@H]3C2)NC(c2nccs2)=N[C@H]1c1ccc(F)cc1Cl [Example 138, 3-(2-((S)-7-(((R)-6-(2-chloro-4-fluorophenyl)-5-(methoxycarbonyl)-2-(thiazol-2-yl)-3,6-dihydropyrimidin-4-yl)methyl)-3-oxohexahydroimidazo[1,5-a]pyrazin-2(3H)-yl)thiazol-4-yl)-5-fluorobenzoic acid]
[1]
  CC50 at 4 days: > 150000 nM
HBV [2]
  EC50: 34 nM

## COC(=O)C1=C(CN2CCN3C(=O)N(c4nc(-c5cccc(C(=O)O)c5)cs4)C[C@@H]3C2)NC(c2nccs2)=N[C@H]1c1ccc(F)cc1Cl [Example 139, 3-(2-((S)-7-(((R)-6-(2-chloro-4-fluorophenyl)-5-(methoxycarbonyl)-2-(thiazol-2-yl)-3,6-dihydropyrimidin-4-yl)methyl)-3-oxohexahydroimidazo[1,5-a]pyrazin-2(3H)-yl)thiazol-4-yl)benzoic acid]
[1]
  CC50 at 4 days: > 150000 nM
HBV [2]
  EC50: 10.7 nM

## Nc1ccn([C@@H]2CS[C@H](CO)O2)c(=O)n1 [lamivudine]
HBV [3]
  IC50: 300 nM
